Measurements reported in PMC2893400 (Biomedical chromatography : BMC, 2010).

How the values were obtained:
[1] = Stability of stock solutions in methanol at 4°C; type: physicochemical; settings: stock solution in methanol stored at 4°C, up to 7 days
[2] = Stability post extraction, reconstituted in methanol at room temperature; type: physicochemical; settings: kept at room temperature

SMILES | Degradation of stock solution [1] | Degradation reconstituted in methanol after recovery [2]
CC(C)C[C@H]1C(=O)N2CCC[C@H]2[C@]2(O)O[C@](NC(=O)[C@@H]3C=C4c5cccc6[nH]c(Br)c(c56)C[C@H]4N(C)C3)(C(C)C)C(=O)N12 [BCT, bromocriptine] | began to degrade significantly after 3 days | 
O=C(CCCN1CCCN(c2ccc(Cl)cc2)CC1)c1ccc(F)cc1 [DAL, 4-[4-(4-Chlorophenyl)-1,4-diazepan-1-yl]-1-(4-fluorophenyl) butan-1-one] | no degradation after 7 days | no degradation
O=C(CCCN1CC=C(n2c(=O)[nH]c3ccccc32)CC1)c1ccc(F)cc1 [DRO, droperidol] | no degradation after 7 days | no degradation
